#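 Where inhibition never reached the appropriate level, the endpoint shown equals the highest concentration tested. Otherwise, values were interpolated linearly from a five-concentration, 48-hour dose response in 96-well plates. At the GI50, growth is halved.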 Calls of active or inactive are those of the source. No stated cut-off is given here; in the data, active = GI50 up to about 1.1 µM and inactive = higher.
# Experiments:
# Test in all cases: NCI anticancer screen, dose series, 48 h
# [1] = test system: SK-MEL-2
# [2] = test system: KM-20L2
# [3] = test system: SN12C
# [4] = test system: SNB-19
# [5] = test system: NCI-H226
# [6] = test system: K562
# [7] = test system: ACHN
# [8] = test system: NCI-H522
# [9] = test system: SNB-75
# [10] = test system: EKVX
# [11] = test system: OVCAR-3
# [12] = test system: HCC 2998
# [13] = test system: A498
# [14] = test system: SK-OV-3
# [15] = test system: HOP-18
# [16] = test system: HOP-62
# [17] = test system: A549
# [18] = test system: SK-MEL-28
# [19] = test system: TK-10
# [20] = test system: SF-268
# [21] = test system: XF498
# [22] = test system: SK-MEL-5
# [23] = test system: NCI-H23
# [24] = test system: HCT-116
# [25] = test system: MOLT-4
# [26] = test system: OVCAR-5
# [27] = test system: SF-295
# [28] = test system: CAKI-1
# [29] = test system: DMS-114
# [30] = test system: NCI-H460
# [31] = test system: RXF 393
# [32] = test system: UO-31
# [33] = test system: SF-539
# [34] = test system: KM12
# [35] = test system: U-251
# [36] = test system: DLD-1
# [37] = test system: SNB-78
# [38] = test system: LOX IMVI
# [39] = test system: RPMI-8226
# [40] = test system: HT-29
# [41] = test system: CCRF-CEM
# [42] = test system: COLO 205
# [43] = test system: HCT-15
# [44] = test system: Malme-3M
# [45] = test system: LXFL 529
# [46] = test system: HOP-92
# [47] = test system: M14
# [48] = test system: OVCAR-4
# [49] = test system: UACC-257
# [50] = test system: SW-620
# [51] = test system: UACC-62
# [52] = test system: 786-0
# [53] = test system: SR
# [54] = test system: M19-MEL
# [55] = test system: DMS-273
# [56] = test system: IGROV-1
# [57] = test system: OVCAR-8
# [58] = test system: HL-60
# [59] = test system: RXF 631
compound,measurement,setting,value
CC1=CC(=O)CC2(C)CC[C@@H]3C[C@]12OC3(C)C (stereo partly drawn),GI50,[1],> 100 µM (inactive)
same,GI50,[2],> 100 µM (inactive)
same,GI50,[3],> 100 µM (inactive)
same,GI50,[4],> 100 µM (inactive)
same,GI50,[5],> 100 µM (inactive)
same,GI50,[6],> 100 µM (inactive)
same,GI50,[7],> 100 µM (inactive)
same,GI50,[8],> 100 µM (inactive)
same,GI50,[9],> 100 µM (inactive)
same,GI50,[10],> 100 µM (inactive)
same,GI50,[11],> 100 µM (inactive)
same,GI50,[12],> 100 µM (inactive)
same,GI50,[13],> 100 µM (inactive)
same,GI50,[14],> 100 µM (inactive)
same,GI50,[15],> 100 µM (inactive)
same,GI50,[16],> 100 µM (inactive)
same,GI50,[17],> 100 µM (inactive)
same,GI50,[18],> 100 µM (inactive)
same,GI50,[19],> 100 µM (inactive)
same,GI50,[20],> 100 µM (inactive)
same,GI50,[21],> 100 µM (inactive)
same,GI50,[22],> 100 µM (inactive)
same,GI50,[23],> 100 µM (inactive)
same,GI50,[24],> 100 µM (inactive)
same,GI50,[25],> 100 µM (inactive)
same,GI50,[26],> 100 µM (inactive)
same,GI50,[27],> 100 µM (inactive)
same,GI50,[28],> 100 µM (inactive)
same,GI50,[29],> 100 µM (inactive)
same,GI50,[30],> 100 µM (inactive)
same,GI50,[31],> 100 µM (inactive)
same,GI50,[32],> 100 µM (inactive)
same,GI50,[33],> 100 µM (inactive)
same,GI50,[34],> 100 µM (inactive)
same,GI50,[35],> 100 µM (inactive)
same,GI50,[36],> 100 µM (inactive)
same,GI50,[37],> 100 µM (inactive)
same,GI50,[38],> 100 µM (inactive)
same,GI50,[39],> 100 µM (inactive)
same,GI50,[40],> 100 µM (inactive)
same,GI50,[41],> 100 µM (inactive)
same,GI50,[42],> 100 µM (inactive)
same,GI50,[43],> 100 µM
same,GI50,[44],> 100 µM (inactive)
same,GI50,[45],> 100 µM (inactive)
same,GI50,[46],> 100 µM (inactive)
same,GI50,[47],> 100 µM (inactive)
same,GI50,[48],> 100 µM (inactive)
same,GI50,[49],> 100 µM (inactive)
same,GI50,[50],> 100 µM (inactive)
same,GI50,[51],> 100 µM (inactive)
same,GI50,[52],> 100 µM (inactive)
same,GI50,[53],> 100 µM (inactive)
same,GI50,[54],> 100 µM (inactive)
same,GI50,[55],> 100 µM (inactive)
same,GI50,[56],> 100 µM (inactive)
same,GI50,[57],> 100 µM (inactive)
same,GI50,[58],> 100 µM (inactive)
COC1=CC(=O)[C@@]2(C)C(C)[C@H](c3ccccc3)[C@H]2C1=O (stereo partly drawn),GI50,[1],> 100 µM (inactive)
same,GI50,[2],> 100 µM (inactive)
same,GI50,[4],> 100 µM (inactive)
same,GI50,[5],> 100 µM (inactive)
same,GI50,[6],> 100 µM (inactive)
same,GI50,[7],> 100 µM (inactive)
same,GI50,[8],> 100 µM (inactive)
same,GI50,[9],> 100 µM (inactive)
same,GI50,[10],> 100 µM (inactive)
same,GI50,[11],> 100 µM (inactive)
same,GI50,[12],> 100 µM (inactive)
same,GI50,[13],> 100 µM (inactive)
same,GI50,[14],> 100 µM (inactive)
same,GI50,[16],> 100 µM (inactive)
same,GI50,[17],> 100 µM (inactive)
same,GI50,[18],> 100 µM (inactive)
same,GI50,[19],> 100 µM (inactive)
same,GI50,[20],> 100 µM (inactive)
same,GI50,[21],> 100 µM (inactive)
same,GI50,[22],> 100 µM (inactive)
same,GI50,[23],> 100 µM (inactive)
same,GI50,[25],> 100 µM (inactive)
same,GI50,[26],> 100 µM (inactive)
same,GI50,[27],> 100 µM (inactive)
same,GI50,[28],> 100 µM (inactive)
same,GI50,[30],> 100 µM (inactive)
same,GI50,[31],> 100 µM (inactive)
same,GI50,[32],> 100 µM (inactive)
same,GI50,[33],> 100 µM (inactive)
same,GI50,[34],> 100 µM (inactive)
same,GI50,[35],> 100 µM (inactive)
same,GI50,[36],> 100 µM (inactive)
same,GI50,[37],> 10 µM (inactive)
same,GI50,[38],> 100 µM (inactive)
same,GI50,[39],> 100 µM (inactive)
same,GI50,[40],> 100 µM (inactive)
same,GI50,[41],> 100 µM (inactive)
same,GI50,[42],> 100 µM (inactive)
same,GI50,[43],> 100 µM
same,GI50,[59],> 100 µM (inactive)
same,GI50,[44],> 100 µM (inactive)
same,GI50,[45],> 100 µM (inactive)
same,GI50,[46],> 100 µM (inactive)
same,GI50,[47],> 100 µM (inactive)
same,GI50,[48],> 100 µM (inactive)
same,GI50,[49],> 100 µM (inactive)
same,GI50,[50],> 100 µM (inactive)
same,GI50,[51],> 100 µM (inactive)
same,GI50,[52],> 100 µM (inactive)
same,GI50,[53],> 100 µM (inactive)
same,GI50,[54],> 100 µM (inactive)
same,GI50,[55],> 100 µM (inactive)
same,GI50,[56],> 100 µM (inactive)
same,GI50,[57],> 100 µM (inactive)
same,GI50,[58],> 100 µM (inactive)
